# Assay results published in publication PMC10682503, “Structural and functional basis of inositol hexaphosphate stimulation of NHEJ through stabilization of Ku-XLF interaction” (Nucleic Acids Research, 2023).
# Key:
# [1] = molecular target: T1, KuΔC (Ku heterodimer deleted of its C-terminal regions) (Homo sapiens, UniProt P12956+P13010); assay: ITC, KuΔC with IP6; format: binding
# T1 construct: heterodimer deleted of its C-terminal region (Ku70 1–544, Ku80 1–551); His-tag (10x His with TEV site, same vector as KuFL) (N); made in house; host or cells: Sf21 insect cells
# T1 sequence (P12956 1-544, stated change not applied): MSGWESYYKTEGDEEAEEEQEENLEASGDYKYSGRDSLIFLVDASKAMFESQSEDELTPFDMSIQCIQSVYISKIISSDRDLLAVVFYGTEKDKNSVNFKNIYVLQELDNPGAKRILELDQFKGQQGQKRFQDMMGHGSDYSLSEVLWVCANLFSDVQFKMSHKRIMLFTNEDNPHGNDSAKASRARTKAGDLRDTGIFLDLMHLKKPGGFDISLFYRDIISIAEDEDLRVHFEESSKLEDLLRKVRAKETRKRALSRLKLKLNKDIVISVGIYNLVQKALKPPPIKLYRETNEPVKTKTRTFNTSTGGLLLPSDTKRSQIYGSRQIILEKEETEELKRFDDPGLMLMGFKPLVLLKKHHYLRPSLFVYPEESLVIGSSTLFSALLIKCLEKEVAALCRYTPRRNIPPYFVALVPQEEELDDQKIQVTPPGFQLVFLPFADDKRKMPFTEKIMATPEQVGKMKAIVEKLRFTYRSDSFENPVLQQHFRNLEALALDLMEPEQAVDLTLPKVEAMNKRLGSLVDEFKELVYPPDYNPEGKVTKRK
# T1 sequence (P13010 1-551, stated change not applied): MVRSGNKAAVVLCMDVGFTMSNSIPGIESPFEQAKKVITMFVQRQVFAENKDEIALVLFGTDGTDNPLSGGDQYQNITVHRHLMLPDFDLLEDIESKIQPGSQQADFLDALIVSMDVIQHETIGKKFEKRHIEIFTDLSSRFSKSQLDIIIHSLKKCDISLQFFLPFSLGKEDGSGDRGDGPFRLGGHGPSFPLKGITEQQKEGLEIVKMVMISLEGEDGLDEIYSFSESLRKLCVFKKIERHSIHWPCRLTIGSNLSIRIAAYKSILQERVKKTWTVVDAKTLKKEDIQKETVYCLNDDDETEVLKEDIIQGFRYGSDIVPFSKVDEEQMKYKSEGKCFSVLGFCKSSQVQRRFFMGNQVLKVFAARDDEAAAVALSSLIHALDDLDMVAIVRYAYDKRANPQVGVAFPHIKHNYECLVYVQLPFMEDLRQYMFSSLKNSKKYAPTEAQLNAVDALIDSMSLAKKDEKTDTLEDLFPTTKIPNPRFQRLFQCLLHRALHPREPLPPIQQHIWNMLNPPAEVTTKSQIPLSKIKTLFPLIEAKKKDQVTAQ
# Method: (§1) Purification of Ku full-length (KuFL) for cryo-EM experiments was carried out as described previously ([5]). Expression and purification of KuFL for biophysical experiments was carried out as described previously ([20]). The full-length human Ku heterodimer subunits (Ku70 1–609, Ku80 1–732) were cloned into a Multibac vector ([21]). The construct has a 10× His-tag and a TEV site on the N-terminus of Ku80 and no-tag on Ku70. Protein production was initiated in Sf21 cells by infection with the baculovirus stock at MOI of 5 × 10^−3 and cells were collected 5–6 days after the infection (3–4 days after the proliferation arrest). Cells were sonicated and the supernatant was incubated with Benzonase (300 units for 30 min at 4°C). The Ku heterodimer was purified on a NiNTA-Agarose affinity column (Protino, Macherey Nagel) with a 1 M NaCl wash step to remove DNA excess. The eluted Ku was then bound onto an anion exchange column (Resource Q, Cytiva) equilibrated in 20 mM Tris pH 8.0, 50 mM NaCl, 50 mM KCl, 10 mM β-mercaptoethanol and eluted with a salt gradient. […]
# (§2) Calorimetry. Interactions between KuFL and inositol phosphates (IPs) (IP6 and IP6 analogues) were determined by Isothermal Titration Calorimetry (ITC) using a VP-ITC calorimeter (Malvern). […] The free energy of binding (ΔG) and the entropy (ΔS) were determined using the classical thermodynamic formula, ΔG = - RT ln(Ka) and ΔG = ΔH - TΔS. […]
# [2] = molecular target: T2, Ku-4E (Ku70 H359E-H360E/Ku80 K413E H414E) (Homo sapiens, UniProt P12956+P13010, H359E/H360E/H414E/K413E); assay: ITC, Ku-4E mutant with IP6; format: binding
# T2 construct: 10x His-tag with TEV site (same vector as KuFL) (N); made in house; host or cells: Sf21 insect cells
# T2 sequence (P12956 whole entry H359E/H360E): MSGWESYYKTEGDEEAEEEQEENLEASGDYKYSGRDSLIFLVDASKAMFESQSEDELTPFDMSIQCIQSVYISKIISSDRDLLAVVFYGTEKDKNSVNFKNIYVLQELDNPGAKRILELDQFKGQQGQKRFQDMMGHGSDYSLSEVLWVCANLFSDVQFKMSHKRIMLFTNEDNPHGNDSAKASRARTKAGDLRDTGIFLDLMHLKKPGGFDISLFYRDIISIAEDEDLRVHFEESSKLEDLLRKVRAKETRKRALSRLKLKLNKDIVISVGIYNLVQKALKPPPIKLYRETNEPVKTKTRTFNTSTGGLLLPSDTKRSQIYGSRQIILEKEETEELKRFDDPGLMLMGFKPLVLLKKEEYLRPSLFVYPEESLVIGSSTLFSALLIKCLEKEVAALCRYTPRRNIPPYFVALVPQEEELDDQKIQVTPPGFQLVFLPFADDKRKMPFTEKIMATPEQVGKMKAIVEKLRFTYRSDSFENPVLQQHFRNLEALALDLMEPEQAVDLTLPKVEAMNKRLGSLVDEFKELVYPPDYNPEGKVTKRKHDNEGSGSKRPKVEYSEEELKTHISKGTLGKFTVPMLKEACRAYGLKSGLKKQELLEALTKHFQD
# T2 sequence (P13010 whole entry K413E/H414E): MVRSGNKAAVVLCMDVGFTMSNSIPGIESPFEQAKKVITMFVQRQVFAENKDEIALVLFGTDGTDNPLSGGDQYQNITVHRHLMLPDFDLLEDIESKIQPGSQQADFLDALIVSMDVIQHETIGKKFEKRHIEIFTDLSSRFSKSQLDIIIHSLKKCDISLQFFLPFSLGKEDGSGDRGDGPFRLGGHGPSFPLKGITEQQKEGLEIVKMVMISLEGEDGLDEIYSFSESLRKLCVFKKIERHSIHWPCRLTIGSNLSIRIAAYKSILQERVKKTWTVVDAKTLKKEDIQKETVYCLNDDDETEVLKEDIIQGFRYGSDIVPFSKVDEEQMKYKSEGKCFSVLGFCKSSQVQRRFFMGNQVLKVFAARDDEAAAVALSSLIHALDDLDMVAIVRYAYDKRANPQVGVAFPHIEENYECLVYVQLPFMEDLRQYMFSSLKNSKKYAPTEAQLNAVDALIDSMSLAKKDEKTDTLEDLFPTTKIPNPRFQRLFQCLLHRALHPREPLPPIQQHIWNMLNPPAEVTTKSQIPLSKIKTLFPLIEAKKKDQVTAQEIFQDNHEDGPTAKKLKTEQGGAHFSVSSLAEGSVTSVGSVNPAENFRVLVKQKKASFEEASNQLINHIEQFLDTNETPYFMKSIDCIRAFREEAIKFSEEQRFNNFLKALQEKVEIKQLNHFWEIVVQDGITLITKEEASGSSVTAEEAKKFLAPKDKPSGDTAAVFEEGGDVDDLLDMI
# Method: as §1, §2
# [3] = molecular target: T3, KuFL (full-length human Ku70–Ku80 heterodimer) (Homo sapiens, UniProt P12956+P13010); assay: Isothermal titration calorimetry (ITC), KuFL with IP6 and IP6 analogues; format: binding; conditions: 25 °C, Ku 4 µM in cell, IPs 40 µM in syringe
# T3 construct: The full-length human Ku heterodimer subunits (Ku70 1–609, Ku80 1–732); 10x His-tag with TEV site (N); made in house; host or cells: Sf21 insect cells (baculovirus, MultiBac)
# T3 sequence (P12956 whole entry): as the sequence (P12956 whole entry H359E/H360E) above, with E359H, E360H counted along it
# T3 sequence (P13010 whole entry): as the sequence (P13010 whole entry K413E/H414E) above, with E413K, E414H counted along it
# Method: Purification of Ku full-length (KuFL) for cryo-EM experiments was carried out as described previously ([5]). Expression and purification of KuFL for biophysical experiments was carried out as described previously ([20]). The full-length human Ku heterodimer subunits (Ku70 1–609, Ku80 1–732) were cloned into a Multibac vector ([21]). The construct has a 10× His-tag and a TEV site on the N-terminus of Ku80 and no-tag on Ku70. Protein production was initiated in Sf21 cells by infection with the baculovirus stock at MOI of 5 × 10^−3 and cells were collected 5–6 days after the infection (3–4 days after the proliferation arrest). Cells were sonicated and the supernatant was incubated with Benzonase (300 units for 30 min at 4°C). The Ku heterodimer was purified on a NiNTA-Agarose affinity column (Protino, Macherey Nagel) with a 1 M NaCl wash step to remove DNA excess. The eluted Ku was then bound onto an anion exchange column (Resource Q, Cytiva) equilibrated in 20 mM Tris pH 8.0, 50 mM NaCl, 50 mM KCl, 10 mM β-mercaptoethanol and eluted with a salt gradient. The final yield was about 20 mg of purified heterodimer per litre of culture. KuΔC constructs, heterodimer deleted of its C-terminal region (Ku70 1–544, Ku80 1–551) for X-ray crystallography, Ku mutants, Ku-2E (Ku with mutation in K357E on Ku70 and K481E on Ku80) and Ku-4E (Ku with mutations in H359E and H360E on Ku70 and K413E and H414E on Ku80) were cloned in the same vector and produced following the same protocol as KuFL expressed in Sf21 insect cells.
# as §2, with “(Malvern). Prior to measurements, all solutions were degassed under vacuum. The reaction cell of the ITC (volume 1.8 mL) was loaded with Ku heterodimers at 4 µM concentration.” for “(Malvern).”
# c-NHEJ = conditions: cited from earlier work
smiles,measurement,setting,value
"O=P(O)(O)O[C@H]1[C@H](OP(=O)(O)O)[C@@H](OP(=O)(O)O)[C@H](OP(=O)(O)O)[C@@H](OP(=O)(O)O)[C@H]1OP(=O)(O)O [IP6, inositol hexaphosphate]",weaker affinity of KuΔC compared with KuFL,[1],~50 fold
same,Kd,[1]; KuΔC construct,178 ± 12 nM
same,interaction with IP6 as measured by ITC,[2],no interaction
same,Kd,[3],3.5 ± 2.9 nM
same,effect on end-joining of a linear plasmid substrate and DNA-PK dependent phosphorylation of XLF,c-NHEJ; human cell extracts,stimulated
same,effect on c-NHEJ,c-NHEJ; human whole-cell extracts,stimulate c-NHEJ
